Data from PMC10247784, “Physiological activation of human and mouse bitter taste receptors by bile acids” (Communications Biology, 2023).
Where “and” joins values, the source holds several entries; their conditions need not be identical. Equal entries are not always repeated.

Columns and labels:
[1] = target: T1, human TAS2R39 (Homo sapiens, UniProt P59534); test: Calcium imaging assay (FLIPR), HEK293T-Gα16gust44 cells transfected with human TAS2R39; format: cell-based; conditions: for Δ F/F / Efficacy = maximal amplitude (ΔF/F) / Efficacy (maximal amplitude ΔF/F), individual data points: TAS2R39; for Efficacy = maximal amplitude (ΔF/F) / Efficacy (maximal amplitude ΔF/F), individual data points: bile acids; for Efficacy = maximal amplitude (ΔF/F): mean; for Efficacy (maximal amplitude ΔF/F), individual data points: single replicates; for Activation threshold concentration TAS2R39: lowest concentration with significantly increased fluorescence vs empty vector (p < 0.01)
T1 construct: expressed in transfected cells; host or cells: HEK293T-Gα16gust44
T1 sequence (P59534 1-338): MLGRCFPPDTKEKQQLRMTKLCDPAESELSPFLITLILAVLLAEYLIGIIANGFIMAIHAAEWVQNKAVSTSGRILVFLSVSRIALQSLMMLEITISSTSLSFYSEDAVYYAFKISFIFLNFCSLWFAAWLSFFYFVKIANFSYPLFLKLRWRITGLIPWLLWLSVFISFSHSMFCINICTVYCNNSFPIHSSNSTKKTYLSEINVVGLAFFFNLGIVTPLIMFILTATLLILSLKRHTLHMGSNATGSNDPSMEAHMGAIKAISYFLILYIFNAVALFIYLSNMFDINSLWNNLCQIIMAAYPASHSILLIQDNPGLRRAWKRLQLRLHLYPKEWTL
Description: (§1) This set of bile acids was chosen because of their commercial availability in high purities, their diversity within the class of bile acids and their previous detection and quantitation in human blood. Stock solutions were prepared in DMSO.
(§2) As basal growth medium for the HEK293T-Gα16gust44 cell line[17],[59] served Dulbecco’s modified eagle medium (DMEM) (Thermo Fisher Scientific, Darmstadt, Germany) supplemented with 10 % fetal bovine serum (Sigma-Aldrich, Steinheim, Germany), 2 mM L-glutamine (Sigma-Aldrich, Steinheim, Germany), 100 units/ml penicillin (Sigma Aldrich, Steinheim, Germany) and 100 µg/ml streptomycin (Sigma Aldrich, Steinheim, Germany). Growth conditions were 37 °C, 5 % CO2 and saturated air-humidity[60].
(§3) HEK293T-Gα16gust44 cells were seeded on poly-D-lysine (10 µg/ml) coated 96-well plates to reach a confluence of 40-60 % the next day. For transient transfection 150 ng of plasmid DNA containing the receptor of interest and 0.3 µl lipofectamine 2000 (Thermo Fisher Scientific, Darmstadt, Germany) per well were used and transfection took place according to the manual of lipofectamine 2000. […] The empty vector DNA (mock) was transfected as negative control[14],[41].
(§4) Cells were loaded using the calcium-sensitive fluorescent dye Fluo-4-AM (Abcam, Cambridge, Great Britain) in the presence of 2.5 mM probenecid (Sigma-Aldrich, Steinheim, Germany) the day after transfection[13],[41]. 1 h after loading, cells were washed with C1 buffer using a BioTek Cell Washer, incubated in the dark for half an hour and washed again. For automated agonist application and measurement of fluorescence changes, a FLIPR^TETRA device (Molecular Devices, San José, United States) was used. Viability of cells was tested by application of 100 nM Somatostatin 14 (Bachem, Bubendorf, Switzerland)[42].
(§5) Measured data were negative control corrected by subtracting the signal of the mock-transfected cells and exported to Microsoft Excel using the FLIPR software ScreenWorks 4.2. In Microsoft Excel software, standardization of maximum fluorescence intensities to the basal fluorescence and normalization to the buffer-only control was done to calculate the relative fluorescence changes (ΔF/F).
(§6) Initial screening experiments performed in duplicate wells were confirmed by at least one replication and representative traces were selected for display. All dose-response relationships were determined by three independent experiments (biological replicates) performed in duplicates (technical replicates). Threshold concentrations, defined as lowest substance concentrations leading to statistically significant elevated fluorescence changes in receptor-transfected cells compared with empty vector-transfected cells, were determined using SigmaPlot with Student’s t-test to evaluate statistical significance (p < 0.01).

[2] = target: T2, mouse Tas2r123 (Mus musculus, UniProt P59528); test: Calcium imaging assay (FLIPR), HEK293T-Gα16gust44 cells transfected with mouse Tas2r123; format: cell-based; conditions: for Δ F/F: Tas2r123; for Activation threshold concentration Tas2r123: p < 0.01 vs empty vector
T2 construct: expressed in transfected cells; host or cells: HEK293T-Gα16gust44
T2 sequence (P59528 1-333): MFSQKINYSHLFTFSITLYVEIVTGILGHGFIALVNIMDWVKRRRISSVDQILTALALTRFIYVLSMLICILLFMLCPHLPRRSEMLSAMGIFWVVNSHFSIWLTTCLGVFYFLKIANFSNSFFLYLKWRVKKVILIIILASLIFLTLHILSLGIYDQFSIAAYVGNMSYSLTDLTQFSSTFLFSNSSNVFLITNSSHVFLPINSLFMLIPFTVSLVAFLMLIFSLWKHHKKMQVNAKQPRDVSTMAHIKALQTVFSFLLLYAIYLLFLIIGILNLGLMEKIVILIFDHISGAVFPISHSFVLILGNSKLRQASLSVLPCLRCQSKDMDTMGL
Description: as §1, §2, §3, §4, §5, §6

| SMILES | Δ F/F ([1]; Conc. 0,01 mM) | Δ F/F ([1]; Conc. 0,1 mM) | Δ F/F ([1]; Conc. 0,03 mM) | Δ F/F ([1]; Conc. 0,3 mM) | Δ F/F ([1]; Conc. 0,001 mM) | Δ F/F ([1]; Conc. 1 mM) | Δ F/F ([1]; Conc. 0,003 mM) | Efficacy = maximal amplitude (ΔF/F) [1] | Activation threshold concentration TAS2R39 [1] [µM] | Δ F/F ([2]; conc. 0,01 mM) | Δ F/F ([2]; conc. 0,1 mM) | Δ F/F ([2]; conc. 0,03 mM) | Δ F/F ([2]; conc. 0,3 mM) | Δ F/F ([2]; conc. 0,001 mM) | Δ F/F ([2]; conc. 0,003 mM) | Activation threshold concentration Tas2r123 [2] [µM] | other results |
| --- | --- | --- | --- | --- | --- | --- | --- | --- | --- | --- | --- | --- | --- | --- | --- | --- | --- |
| C[C@H](CCC(=O)NCCS(=O)(=O)O)[C@H]1CC[C@H]2[C@@H]3[C@H](O)C[C@@H]4C[C@H](O)CC[C@]4(C)[C@H]3C[C@H](O)[C@]12C [Taurocholic Acid, taurocholic acid] | 0.002616 | 0.007681 | 0.00381 | 0.02945 | -0.001111 | 0.155 | 0.0008114 | 0.155 | 300 | 0.015 | 0.09205 | 0.02651 | 0.1589 | 0.002404 | 0.009262 | 100 | Efficacy (maximal amplitude ΔF/F), individual data points ([1]; listed as TCA): 0.1385 and 0.1739 and 0.1528 |
| C[C@H](CCC(=O)NCC(=O)O)[C@H]1CC[C@H]2[C@@H]3[C@H](O)C[C@@H]4C[C@H](O)CC[C@]4(C)[C@H]3C[C@H](O)[C@]12C [Glycocholic Acid, glycocholic acid] | 0.001299 | 0.005941 | 0.007895 | 0.02136 | 0.004486 | 0.1303 | 0.004867 | 0.1303 | 300 | -0.001074 | -0.0006317 | -0.000632 | -0.001006 | 7.054e-5 | 0.000982 | 30 | Efficacy (maximal amplitude ΔF/F), individual data points ([1]; listed as GCA): 0.1116 and 0.125 and 0.1542 |
| C[C@H](CCC(=O)O)[C@H]1CC[C@H]2[C@@H]3[C@H](O)C[C@@H]4C[C@H](O)CC[C@]4(C)[C@H]3C[C@H](O)[C@]12C [Cholic Acid, cholic acid] |  |  |  |  |  |  |  | 0.2007 | 300 |  |  |  |  |  |  | 10 | Efficacy (maximal amplitude ΔF/F), individual data points ([1]; listed as CA): 0.15 and 0.2304 and 0.2216 |
| C[C@H](CCC(=O)O)[C@H]1CC[C@H]2[C@@H]3CC[C@@H]4C[C@H](O)CC[C@]4(C)[C@H]3C[C@H](O)[C@]12C [Deoxycholic Acid, deoxycholic acid] |  |  |  |  |  |  |  |  |  |  |  |  |  |  |  | 10 |  |
| C[C@H](CCC(=O)O)[C@H]1CC[C@H]2[C@@H]3[C@@H](O)C[C@@H]4C[C@H](O)CC[C@]4(C)[C@H]3CC[C@]12C [Ursodeoxycholic Acid, ursodeoxycholic acid] |  |  |  |  |  |  |  |  |  | 0.06526 |  | 0.08617 |  | 0.01545 | 0.01427 | 10 | Δ F/F ([2]; conc. 0,0001 mM): -5.942e-5; Δ F/F ([2]; conc. 0,0003 mM): -0.0007331 |
